Source: patent US20180066064A1, “BIOTHERAPEUTICS TARGETING GPR158 FOR CANCER” (University of Southern California, priority 2015, published 2018)

Experiments:
[1] = system: GPR158 driven by a doxycycline inducible promoter; AR, PSA; assay: Dox induction in lenti-GPR158 LNCaP cells (western blotting); format: cell-based, human
lenti-GPR158 LNCaP cells = assay: Cell counting of lenti-GPR158 LNCaP cells after Dox treatment; format: cell-based, human; conditions: Dox 100 ng/mL
[2] = system: GPR158, AR and PSA expression in C4-2B cells; conditions: DHT 10 nM
Method: (§1) FIG. 2: Effects of an androgen on GPR158 expression. […] Total RNA (FIG. 2A-FIG. 2C) or cell lysates (FIG. 2E-FIG. 2G) were isolated and subjected to qRT-PCR and western blotting, respectively to estimate AR, PSA, GPR158 and beta-actin expression. […] Total RNA or the whole cell lysates were isolated and qRT-PCR and western blotting was performed, respectively to detect GPR158, AR, PSA and beta-actin levels (FIG. 2D) The mRNA level of the above indicated genes was considered 1 in cells grown in 10% FCS for calculating the relative fold difference of these genes in other experimental conditions. (FIG. 2A-FIG. 2H) The data represent three independent experiments.
(§2) For androgen starvation studies, LNCaP, PC-3, and DU145 cells were grown in 10% CSS.
(§3) Total RNA isolated from PCa cell lines with Aurum total RNA mini kit (Bio-Rad, Hercules, Calif.) was subjected to qRT-PCR analysis using iScript one-step RT-PCR kit with SYBR Green (Bio-Rad) on CFX96 Touch Real-Time PCR Detection System (Bio-Rad), according to the manufacturer's instructions. Relative quantification values of genes of interest were calculated as 2^−ΔΔCt by the comparative Ct method, where ΔΔCt=(Ct target mRNA of treated sample-Ct reference gene of treated sample)-(Ct target mRNA of control sample-Ct reference gene of control sample). The Inventors used beta-actin or GAPDH as a reference gene.
(§4) The whole cell lysates were prepared using radioimmunoprecipitation assay (RIPA) lysis buffer (50 mM Tris, 150 mM NaCl, 0.1% SDS, 0.5% Sodium Deoxycholate, 1% NP-40) spiked with a cocktail of protease inhibitors for 20 min, followed by centrifugation at 10,000 g for 10 min. Supernatants were collected and proteins in the extracts were separated by SDS-PAGE without boiling the samples and transferred to PVDF membranes. Membranes were probed with primary antibody against protein of interest and were developed by chemiluminescence with reagents Luminol enhancer solution and peroxide solution (GE Healthcare UK limited, Buckinghamshire, UK) and images were captured with Fujifilm imaging system (LAS-4000; Fujifilm, Tokyo, Japan). Protein loading was monitored by stripping and reprobing of the membrane with beta-actin antibody.

[3] = system: GPR158, AR and PSA expression in PHPECs; conditions: DHT 10 nM
Method: as §1, §2, §3, §4

[4] = system: GPR158, AR and PSA expression in LNCaP cells; conditions: DHT 10 nM
Method: as §1, §2, §3, §4

Row | Compound | induction of GPR158 protein ([1]; Dox 100 ng/mL, at 4, 6 and 8 days (data not shown)) [fold] | increase in GPR158 protein levels ([1]; Dox 500 ng/mL, 3 days) [fold] | increase in cell numbers (lenti-GPR158 LNCaP cells; 3 days, normalized for Dox alone on parental cells) [fold] | increase in cell numbers (growth curve) (lenti-GPR158 LNCaP cells; at 4, 6 and 8 days vs untreated) | effect on GPR158 mRNA and protein levels ([2]; C4-2B cells, 10% CSS) | AR protein stabilization ([2]; C4-2B) | PSA mRNA and protein levels ([2]; C4-2B) | PSA mRNA and protein levels ([3]; PHPEC) | AR protein stabilization ([3]; PHPEC, 12 hrs) | increase of GPR158 mRNA and protein levels ([3]; PHPECs, 24 hrs, 10% CSS) | increase of GPR158 mRNA and protein levels ([4]; LNCaP cells, 24 hrs, 10% CSS) | PSA mRNA and protein levels ([4]; LNCaP) | AR protein stabilization ([4]; LNCaP, 12 hrs)
1 | C[C@H]1c2cccc(O)c2C(=O)C2=C(O)[C@]3(O)C(=O)C(C(N)=O)=C(O)[C@@H](N(C)C)[C@@H]3[C@@H](O)[C@@H]21 [Dox, doxycycline] | 3 | ~6 | 2.25 | approximately 2 fold |  |  |  |  |  |  |  |  | 
2 | C[C@]12CCC(=O)C[C@@H]1CC[C@@H]1[C@@H]2CC[C@]2(C)[C@@H](O)CC[C@@H]12 [DHT, dihydrotestosterone] |  |  |  |  | no effect | not in C4-2B cells | increased significantly | increased significantly | AR protein stabilization | 3-4 fold | 3-4 fold | increased significantly | AR protein stabilization
